The assay deals with Mycobacterium tuberculosis. Nature of the assay: Antimycobacterial activity against multi-drug resistant Mycobacterium tuberculosis. It is filed as functional.

≈ marks a conversion by molar mass, not a printed value.

What is called MIC is the lowest concentration that inhibits growth of the organism. A low value points to a more susceptible organism. As for `CC(=O)NC[C@H]1CN(c2ccc(N3CCOCC3)c(F)c2)C(=O)O1` [LINEZOLID], the lowest concentration to inhibit growth (MIC) was 0.125 µg/mL (≈ 0.371 µM).

For H-GWLDVAKKIGKAAFNVAKNFI-OH, the MIC is under 0.98 µg/mL.

The values above are taken from ChEMBL document CHEMBL6078612, “Novel strategies based on natural products and synthetic derivatives to overcome resistance in Mycobacterium tuberculosis” (Eur J Med Chem, 2024).
